Data reported in PubChem BioAssay AID1918954 (Molecular Pharmacology Branch, DTP, NCI, 2023).

Test system: MDA-MB-468 complex spheroids with HUVEC/MSC, viability
Assay: Anticancer human tumor MDA-MB-468 cell line growth inhibition;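 also: spheroids exposed to agents for seven days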;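 as to viability, T/C: 100% = DMSO vehicle control viability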
Conditions: for IC50: curve of first compound; for viability, T/C: stronger effect = lower value; active = viability on the fitted dose curve at most 10% of control; inactive = the rest
Summary of the method: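 Drug combinations with the LSD1 inhibitor iadademstat tested on tumor cells co-cultured as spheroids with endothelial cells and mesenchymal stem cells. Concentrations descended in half-log increments from clinical Cmax or 10 microM.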

[1] = second compound 0.1 µM, first compound 0.000949 µM
[2] = second compound 0.1 µM, first compound 0.003 µM
[3] = second compound 0.1 µM, first compound 0.00949 µM
[4] = second compound 0.1 µM, first compound 0.03 µM
[5] = second compound 0.1 µM, first compound 0.0949 µM
[6] = second compound 0.1 µM, first compound 0.3 µM
[7] = second compound 0.316 µM, first compound 0.000949 µM
[8] = second compound 0.316 µM, first compound 0.003 µM
[9] = second compound 0.316 µM, first compound 0.00949 µM
[10] = second compound 0.316 µM, first compound 0.03 µM
[11] = second compound 0.316 µM, first compound 0.0949 µM
[12] = second compound 0.316 µM, first compound 0.3 µM
[13] = second compound 1 µM, first compound 0.000949 µM
[14] = second compound 1 µM, first compound 0.003 µM
[15] = second compound 1 µM, first compound 0.00949 µM
[16] = second compound 1 µM, first compound 0.03 µM
[17] = second compound 1 µM, first compound 0.0949 µM
[18] = second compound 1 µM, first compound 0.3 µM
[19] = second compound 3.16 µM, first compound 0.000949 µM
[20] = second compound 3.16 µM, first compound 0.003 µM
[21] = second compound 3.16 µM, first compound 0.00949 µM
[22] = second compound 3.16 µM, first compound 0.03 µM
[23] = second compound 3.16 µM, first compound 0.0949 µM
[24] = second compound 3.16 µM, first compound 0.3 µM
[25] = second compound 10 µM, first compound 0.000949 µM
[26] = second compound 10 µM, first compound 0.003 µM
[27] = second compound 10 µM, first compound 0.00949 µM
[28] = second compound 10 µM, first compound 0.03 µM
[29] = second compound 10 µM, first compound 0.0949 µM
[30] = second compound 10 µM, first compound 0.3 µM

CC[C@@]1(O)C(=O)OCc2c1cc1n(c2=O)Cc2cc3c(CN(C)C)c(O)ccc3nc2-1 + NC1CCC(NC2CC2c2ccccc2)CC1
620 pM: IC50 (second compound 3.16 µM)
active: viability, T/C (second compound 0.1 µM, first compound 0.01 µM) 7.64% | viability, T/C (second compound 0.1 µM, first compound 0.0316 µM) 6.65% | viability, T/C (second compound 0.1 µM, first compound 0.1 µM) 4.69% | viability, T/C (second compound 0.316 µM, first compound 0.01 µM) 8.5% | viability, T/C (second compound 0.316 µM, first compound 0.0316 µM) 4.51% | viability, T/C (second compound 0.316 µM, first compound 0.1 µM) 4.68% | viability, T/C (second compound 1 µM, first compound 0.01 µM) 8.19% | viability, T/C (second compound 1 µM, first compound 0.0316 µM) 6.26% | viability, T/C (second compound 1 µM, first compound 0.1 µM) 5.19% | viability, T/C (second compound 3.16 µM, first compound 0.01 µM) 11.4% | viability, T/C (second compound 3.16 µM, first compound 0.0316 µM) 5.77% | viability, T/C (second compound 3.16 µM, first compound 0.1 µM) 6.13% | viability, T/C (second compound 10 µM, first compound 0.01 µM) 8.51% | viability, T/C (second compound 10 µM, first compound 0.0316 µM) 6.13% | viability, T/C (second compound 10 µM, first compound 0.1 µM) 6.82%
inactive: viability, T/C (second compound 0.1 µM, first compound 0.000316 µM) 78% | viability, T/C (second compound 0.1 µM, first compound 0.001 µM) 37.9% | viability, T/C (second compound 0.1 µM, first compound 0.00316 µM) 13.1% | viability, T/C (second compound 0.316 µM, first compound 0.000316 µM) 83.4% | viability, T/C (second compound 0.316 µM, first compound 0.001 µM) 40.8% | viability, T/C (second compound 0.316 µM, first compound 0.00316 µM) 12.7% | viability, T/C (second compound 1 µM, first compound 0.000316 µM) 89.1% | viability, T/C (second compound 1 µM, first compound 0.001 µM) 37.3% | viability, T/C (second compound 1 µM, first compound 0.00316 µM) 12.6% | viability, T/C (second compound 3.16 µM, first compound 0.000316 µM) 64.5% | viability, T/C (second compound 3.16 µM, first compound 0.001 µM) 40% | viability, T/C (second compound 3.16 µM, first compound 0.00316 µM) 15.2% | viability, T/C (second compound 10 µM, first compound 0.000316 µM) 49.7% | viability, T/C (second compound 10 µM, first compound 0.001 µM) 40.8% | viability, T/C (second compound 10 µM, first compound 0.00316 µM) 14.1%
706 pM: IC50 (second compound 0.1 µM)
< 316 pM: IC50 (second compound 10 µM)
777 pM: IC50 (second compound 0.316 µM)
752 pM: IC50 (second compound 1 µM)

CCc1c2c(nc3ccc(O)cc13)-c1cc3c(c(=O)n1C2)COC(=O)[C@]3(O)CC + NC1CCC(NC2CC2c2ccccc2)CC1
active: viability, T/C [1] 7.86% | viability, T/C [2] 7.19% | viability, T/C [3] 4.23% | viability, T/C [4] 3.08% | viability, T/C [5] 2.21% | viability, T/C [6] 2.02% | viability, T/C [7] 6.84% | viability, T/C [8] 5.38% | viability, T/C [9] 3.66% | viability, T/C [10] 3.28% | viability, T/C [11] 1.33% | viability, T/C [12] 2.06% | viability, T/C [13] 6.78% | viability, T/C [14] 6.71% | viability, T/C [15] 4.78% | viability, T/C [16] 2.79% | viability, T/C [17] 1.75% | viability, T/C [18] 2.02% | viability, T/C [19] 7.33% | viability, T/C [20] 4.42% | viability, T/C [21] 4.73% | viability, T/C [22] 3.2% | viability, T/C [23] 2.84% | viability, T/C [24] 1.88% | viability, T/C [25] 6.82% | viability, T/C [26] 5.98% | viability, T/C [27] 4.27% | viability, T/C [28] 3.39% | viability, T/C [29] 2.46% | viability, T/C [30] 2.29%
< 949 pM: IC50 (second compound 0.1 µM) | IC50 (second compound 0.316 µM) | IC50 (second compound 1 µM) | IC50 (second compound 3.16 µM) | IC50 (second compound 10 µM)

COc1cc(C2c3cc4c(cc3C(OC3OC5COC(C)OC5C(O)C3O)C3COC(=O)C23)OCO4)cc(OC)c1O (stereo not given) + NC1CCC(NC2CC2c2ccccc2)CC1
76600 pM: IC50 (second compound 3.16 µM)
99200 pM: IC50 (second compound 0.1 µM)
active: viability, T/C (second compound 0.316 µM, first compound 3 µM) 9.23% | viability, T/C (second compound 1 µM, first compound 3 µM) 8.57%
93100 pM: IC50 (second compound 0.316 µM)
89200 pM: IC50 (second compound 1 µM)
52600 pM: IC50 (second compound 10 µM)
inactive: viability, T/C [3] 83.6% | viability, T/C [4] 91.3% | viability, T/C [5] 51.6% | viability, T/C [6] 13.8% | viability, T/C (second compound 0.1 µM, first compound 0.949 µM) 10.8% | viability, T/C (second compound 0.1 µM, first compound 3 µM) 8.8% | viability, T/C [9] 82.6% | viability, T/C [10] 72.3% | viability, T/C [11] 51.2% | viability, T/C [12] 14.3% | viability, T/C (second compound 0.316 µM, first compound 0.949 µM) 12.5% | viability, T/C [15] 90.7% | viability, T/C [16] 77.2% | viability, T/C [17] 50.8% | viability, T/C [18] 13.8% | viability, T/C (second compound 1 µM, first compound 0.949 µM) 12.8% | viability, T/C [21] 67.6% | viability, T/C [22] 68.2% | viability, T/C [23] 45.9% | viability, T/C [24] 15.5% | viability, T/C (second compound 3.16 µM, first compound 0.949 µM) 15.3% | viability, T/C (second compound 3.16 µM, first compound 3 µM) 8.59% | viability, T/C [27] 55.5% | viability, T/C [28] 64.5% | viability, T/C [29] 39.5% | viability, T/C [30] 17.1% | viability, T/C (second compound 10 µM, first compound 0.949 µM) 17.2% | viability, T/C (second compound 10 µM, first compound 3 µM) 11%

Nc1ccn(C2OC(CO)C(O)C2(F)F)c(=O)n1 (stereo not given) + NC1CCC(NC2CC2c2ccccc2)CC1
active: viability, T/C [1] 5.76% | viability, T/C [2] 4.85% | viability, T/C [3] 5.57% | viability, T/C [4] 4.54% | viability, T/C [5] 4.56% | viability, T/C [6] 5.13% | viability, T/C [7] 5.33% | viability, T/C [8] 5.22% | viability, T/C [9] 5.23% | viability, T/C [10] 4.88% | viability, T/C [11] 5.47% | viability, T/C [12] 5.64% | viability, T/C [13] 6.43% | viability, T/C [14] 6.38% | viability, T/C [15] 5.41% | viability, T/C [16] 4.34% | viability, T/C [17] 4.71% | viability, T/C [18] 5.55% | viability, T/C [19] 6.65% | viability, T/C [20] 5.98% | viability, T/C [21] 5.78% | viability, T/C [22] 5.89% | viability, T/C [23] 4.69% | viability, T/C [24] 5.66% | viability, T/C [25] 7.63% | viability, T/C [26] 6.29% | viability, T/C [27] 6.52% | viability, T/C [28] 7.12% | viability, T/C [29] 5.35% | viability, T/C [30] 5.45%
< 949 pM: IC50 (second compound 0.1 µM) | IC50 (second compound 0.316 µM) | IC50 (second compound 1 µM) | IC50 (second compound 3.16 µM) | IC50 (second compound 10 µM)
